How the values were obtained:
[1] = Phase I open-label randomized 2-way crossover bioequivalence study, plasma pharmacokinetics of DTG and RPV; assay type: in vivo, healthy adults; conditions: blind sample size reestimation after 57 participants
Source text: This phase I study (ViiV-clinicalstudyregister.com identifier 201676) utilized an open-label, randomized, 2-way crossover design at a single center (Quintiles, Overland Park, KS, USA) (Fig. 2). The total duration of the study was approximately 8 weeks from the time of screening to the last follow-up visit. A crossover design was selected for this study to allow within-participant comparisons to be performed, thereby reducing the number of participants required for the study. Rilpivirine has a long half-life (∼50 h) ([15]); therefore, a 21-day washout between doses and a long pharmacokinetic sampling period were implemented to ensure that predose concentrations were negligible and that pharmacokinetic parameters could be well estimated.
The reference treatment consisted of DTG 50-mg tablets (Tivicay; ViiV Healthcare, Research Triangle Park, NC, USA), which were identical in composition to the commercial form except for a different film coat color, and commercial RPV 25-mg tablets (Edurant; Janssen Therapeutics, Titusville, NJ, USA). The test treatment was the FDC tablet with DTG at 50 mg and RPV at 25 mg (Juluca; ViiV Healthcare, Research Triangle Park, NC, USA).
Participants were randomly assigned 1:1 to 1 of 2 treatment sequences according to a randomization schedule generated before the start of the study. […]

[2] = design: method as in PMID 24798770; conditions: cited from earlier work
[3] = design: method as in PMID 23979733; conditions: DTG 50 mg once daily and RPV 25 mg once daily with a moderate-fat meal; cited from earlier work
[4] = cited from earlier work

Observed within-participant coefficient of variation (CVw) of Cmax [1] [%] | Structure (SMILES) | Plasma exposure in the fed state [2] | Change in AUC0–t or Cmax on coadministration [3] | Half-life [4] [h] | Decrease in absorption after fasting versus a normal-fat meal ([4]; fasting vs normal-fat meal)
14.8 | C[C@@H]1CCO[C@H]2Cn3cc(C(=O)NCc4ccc(F)cc4F)c(=O)c(O)c3C(=O)N12 [DTG, dolutegravir] | increase | no significant change | – | –
32.9 | Cc1cc(/C=C/C#N)cc(C)c1Nc1ccnc(Nc2ccc(C#N)cc2)n1 [RPV, rilpivirine] | – | no significant change | ~50 | approximately 40%
